Data as given in PubChem BioAssay (NCI).
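These data come from cells grown in 96-well plates and exposed to compound for 48 hours at five concentrations. GI50 marks 50% less growth. TGI: total growth inhibition.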

Columns and labels:
Experiment in all cases: NCI tumour cell line growth inhibition, 48 h
CCRF-CEM leukemia = tested on: CCRF-CEM leukemia
786-0 renal = tested on: 786-0 renal
SF-539 CNS = tested on: SF-539 CNS
IGROV1 ovarian = tested on: IGROV1 ovarian
MALME-3M melanoma = tested on: MALME-3M melanoma
SNB-75 CNS = tested on: SNB-75 CNS
BT-549 breast = tested on: BT-549 breast
M14 melanoma = tested on: M14 melanoma
LOX IMVI melanoma = tested on: LOX IMVI melanoma
NCI/ADR-RES ovarian = tested on: NCI/ADR-RES ovarian

SMILES	GI50 (CCRF-CEM leukemia) [µM]	TGI (CCRF-CEM leukemia) [µM]	GI50 (786-0 renal) [µM]	TGI (786-0 renal) [µM]	GI50 (SF-539 CNS) [µM]	TGI (SF-539 CNS) [µM]	GI50 (IGROV1 ovarian) [µM]	TGI (IGROV1 ovarian) [µM]	GI50 (MALME-3M melanoma) [µM]	TGI (MALME-3M melanoma) [µM]	GI50 (SNB-75 CNS) [µM]	TGI (SNB-75 CNS) [µM]	GI50 (BT-549 breast) [µM]	TGI (BT-549 breast) [µM]	GI50 (M14 melanoma) [µM]	TGI (M14 melanoma) [µM]	GI50 (LOX IMVI melanoma) [µM]	TGI (LOX IMVI melanoma) [µM]	GI50 (NCI/ADR-RES ovarian) [µM]	TGI (NCI/ADR-RES ovarian) [µM]
CC(=O)c1c(C)c2cnc(Nc3ccc(N4CCNCC4)cn3)nc2n(C2CCCC2)c1=O	0.707	> 50.6	5.04	20.7	14.1	28.3	7.35	25	8.25	24.4	10.7	23.4	13.6	27.3	9.13	23.6	1.46	19.7	16.7	33.8
COc1ccc2c(c1)/C(=N/OC(C)=O)c1c-2c(OC)nc2ccccc12	> 100	> 100	> 100	> 100	72.9	> 100	–	–	57.3	> 100	18	> 100	> 100	> 100	> 100	> 100	> 100	> 100	> 100	> 100
Cc1ccc(-c2nc3sc(C)cn3c2/C=C2\C(=O)Nc3ccc(Cl)cc32)cc1	29.3	93.6	10.3	22	4.51	17.3	12.6	27.6	14.9	35.6	3.1	8.44	15.3	37.1	15.5	29.9	13.8	26.7	15.7	34.2
Cn1c(I)c(C#C[Si](C)(C)C)c(=O)[nH]c1=O	1.74	3.65	16.4	30.4	9.28	21.4	1.9	3.63	1.96	4.25	15.2	29.3	3	9.21	–	–	2.09	4	20.7	42.8
O=C1C(Cl)=C(NCCCN(CCCNC2=C(Cl)C(=O)c3ccccc3C2=O)C2=C(Cl)C(=O)c3ccccc3C2=O)C(=O)c2ccccc21	3.34	> 100	4.62	18.2	2.45	6.71	1.76	6.13	1.62	3.29	20.6	39.3	2.5	13.5	–	–	–	–	4.06	> 100
S=C(SSC(=S)N1CCCCC1)N1CCCCC1	8.18	58.3	14.5	28.9	14.2	32.6	–	–	16.4	50.4	16.7	57.6	16.6	44.6	8.34	22.9	5.64	18.1	15.7	40.9
